Source: a melting point compilation (Tetko et al.; mined from patent text by program, amines drawn as free bases though some values may be those of a salt)

SMILES | melting point
Cc1nc(CN(C)C)n(-c2ccc(Cl)cc2C(=O)c2ccccc2Cl)c1CN1C(=O)c2ccccc2C1=O | 121 to 150 °C
COCCOc1ccc(CC(C)C(=O)O)c(Oc2ncc(C(F)(F)F)cc2Cl)c1 (stereo not drawn) | 130 to 131 °C
CC1(C)CCC[C@H](N2C(=O)c3ccccc3C2=O)C(=O)N1 | 193 to 194 °C
O=C(O)C1=CCC2CC(=O)N12 (stereo not drawn) | 172 to 174 °C
Cc1c(Cl)cccc1S(=O)(=O)Nc1ccc2nc(C)n(C)c2c1 | 265 to 266 °C
CCOc1nc(N)nc2c1CCC2 | 134 to 135 °C
c1ccc(N(c2ccccc2)c2ccsc2)cc1 | 79 to 82 °C
COCc1c(C(=O)OC(C)C)ncc2[nH]c3ccc(I)cc3c12 | 233 to 235 °C
O=C(O)CCCN(C(=O)c1ccc(Cl)cc1Cl)c1cccc2ccccc12 | 134 to 136 °C
CCCn1nnn(-c2cc(OC(C)C)c(CBr)cc2Cl)c1=O | 68 to 70 °C
CCOC(=O)C1=C2NCCN2C(C)=C(C(C)=O)C1c1cccc([N+](=O)[O-])c1 (stereo not drawn) | 155 °C
CC(=O)Nc1ccc(Cl)cc1S(=O)(=O)CC#N | 174 °C
Cn1cc(C2=C(c3c4n(c5ccccc35)CCC(C#N)C4)C(=O)OC2=O)c2ccccc21 (stereo not drawn) | 309 to 311 °C
O=C(NC(C(=O)O)c1ccsc1)OCc1ccccc1 (stereo not drawn) | 115 to 117 °C
OCCC1CC2CCN1CC2 (stereo not drawn) | 62 to 64 °C
CCCCCc1c(C(O)CC)nc(C(C)C)c(CO)c1-c1ccc(F)cc1 (stereo not drawn) | 89 to 90 °C
COc1ccc2c(c1)c(CCOC(=O)c1cc(O)c3c(c1)C(=O)c1cccc(O)c1C3=O)c(C)n2C(=O)c1ccc(Cl)cc1 | 139 to 146 °C
COc1cc(C(C)=O)ccc1OCCCCN1CCC(C(O)(c2ccc(F)cc2)c2ccc(F)cc2)CC1 | 104 to 105 °C
CCC(=O)Nc1c(C(=O)c2cc(Cl)ccc2NC(C)=O)[nH]c2cc(Cl)ccc12 | 264 to 266 °C
CCNc1cc(-c2nc(=O)c3ccccc3s2)ccc1C(=O)OC | 171 to 178 °C
COC(=O)c1ccc(-c2cc(-c3ccccc3)on2)cc1 | 201 to 202 °C
CC1(C)Nc2cccc3cccc(c23)N1 | 114 to 115 °C
CCN(Cc1cccc(-c2ccc(CC3SC(=O)NC3=O)cc2)c1)C(=O)OC(C)(C)C (stereo not drawn) | 103 °C
CN(C)C(=O)C1(C)CN(C(=O)Nc2ccc(Cl)cc2)N=C1c1ccc(Cl)cc1 (stereo not drawn) | 194 to 197 °C
Cc1c(C)c2c(c(C)c1N)CC(C)(CCc1ccc(F)cc1)O2 (stereo not drawn) | 62 to 63 °C
CCOC(=O)C1(C(=O)Nc2ccc(Br)cc2C)CCC1 | 61 to 64 °C

SMILES | melting point
C=Cc1ccccc1C(=O)n1nnc2ccccc2c1=O | 120 °C
CC1(C)N=C(n2ccc(O)cc2=O)c2cc(Br)ccc2O1 | 171 to 172 °C
CCOC(=O)COc1nccc(-c2ccccn2)n1 | 48 to 53 °C
C[C@H](NS(=O)(=O)c1ccc(-c2c(C#N)c3ccc(C4CC4)cc3n2-c2ncccn2)nc1)C(F)(F)F | 181 to 184 °C
C=CC(=O)NCN1CCCC1=O | 73 to 74 °C
Cc1ccc(N)c(C(=O)NCC(C)Cn2ccnc2)c1 (stereo not drawn) | 120 to 122 °C
O=C(Nc1ccc2[nH]c(=O)oc2c1)C(=O)N1CCC(Cc2ccccc2)CC1 | 190 to 193 °C
CC(=O)c1c(C)[nH]c(C(C)C)c1C | 166 to 167 °C
CCNC(=O)c1cc(NC)ccc1[Si](C)(C)C | 101 to 102 °C
C=CCc1c(O)c(=O)[nH]c2cc(Cl)ccc2c1=O | 172 to 174 °C
O=[N+]([O-])c1ccc(CSc2ccc(Cl)cc2)cc1 | 66 to 68 °C
O=S1(=O)c2cccc3cccc(c23)N1CC(O)CN1CCN(c2ccc(F)cc2)CC1 (stereo not drawn) | 130 °C
COC(=O)c1ccc2c(CCC=O)nn(C)c2c1 | 80 to 83 °C
CON(C)C(=O)[C@@H](Cc1ccc(OCc2ccccc2)cc1)NC(=O)OC(C)(C)C | 107 to 109 °C
COC(=O)CCc1oc(Cl)nc1-c1ccc(Cl)cc1 | 71 to 72 °C
CC(C)C(C)(C(=O)NCCc1ccccn1)C(C)C | 60 to 61 °C
CCCN(CCC)c1nc2c(N3CCSCC3)nccc2c(=O)[nH]1 | 226 °C
CS(=O)(=O)Nc1ccc(-c2cn3cccnc3n2)cc1Sc1ccc(F)cc1F | 219 to 220 °C
FC(F)(F)c1ccc(/C=C/c2nc(COc3ccc(-c4nc(Cn5ccnn5)co4)cc3)cs2)cc1 | 179 to 181 °C
N#CN(Cc1ccc([N+](=O)[O-])cc1)C(=O)CCCC(=O)N(C#N)Cc1ccc([N+](=O)[O-])cc1 | 146 to 148 °C
NC(=NO)c1ccc(C(=O)O)cn1 | > 300 °C
COc1cc2cc(C(=O)CCC(=O)O)sc2cc1OC | 177 to 178 °C
COc1c(N)cc(Cl)c(OC)c1[N+](=O)[O-] | 68 °C
CCOc1cc2c(C[C@H](C)N)c3n(c2cc1F)CCC3 | 107 °C
CCCn1cnc(COc2nn3c(-c4ccccc4)nnc3cc2-c2ccccc2)n1 | 212 to 214 °C
COC(=C(OC)c1ccccc1OC)c1ccc(N)nn1 | 139 to 142 °C

SMILES | melting point
COc1ccc(Nc2nc(NC(C)C)nc(Oc3ccccc3C#CC(C)(C)O)n2)cc1Cl | 138 to 140 °C
CS(=O)(=O)Nc1ccc(F)cc1OCCCN1CCC(OC(c2ccccc2)c2ccccc2)CC1 | 52 to 56 °C
COc1ccc(-n2cc(C#N)c(=O)[nH]c2=O)cc1 | 304 to 306 °C
O=C(O)CNC(=O)c1ccc([N+](=O)[O-])cc1[N+](=O)[O-] | 188 to 190 °C
C[C@H](NC(=O)c1c(CN2CCNCC2)c(-c2ccccc2)nc2ccccc12)C1CCCCC1 | 116 to 118 °C
CCOC(=O)c1cc(=O)c2ccc(OC(=S)N(C)C)cc2o1 | 160 to 161 °C
CNC(=O)N(c1ccccc1)c1ncc(C)n1-c1ccccc1 | 147 °C
CCCSc1cn(C)cc(-c2ccc(Cl)c(C(F)(F)F)c2)c1=O | 128 to 130 °C
CCn1c(=O)c2c(nc(/C=C/c3cc(O)c4c(c3)OCO4)n2C)n(CC)c1=O | 265 to 268 °C
CCCc1cc(Cl)c(OC(=S)N(C)C)c(C(C)=O)c1O | 114 to 116 °C
CN(Cc1ccccc1)C(=O)CCC(=O)c1ccc(Cl)c(S(N)(=O)=O)c1 | 162 °C
CSc1ccc(-c2ccc(C(F)(F)F)cc2)nc1F | 70 to 73 °C
O=C(O)c1ccc(-c2coc(-c3ccc(Cl)cc3)n2)cc1 | 288 to 289 °C
O=C(Nc1cccc2c1C(=O)c1c-2n[nH]c1C1CCN(C(=O)C2CCCNC2)CC1)NN1CCOCC1 (stereo not drawn) | 169 to 170 °C
COCCc1nc2c(N)nc3ccccc3c2n1CCCCCCCCNC(=O)c1ccccc1 | 133 to 138 °C
CCn1cc(C(=O)O)c(=O)c2cc(F)c(O)cc21 | > 250 °C
COc1ccc([C@H]2N[C@H](c3ccc4c(c3)OCO4)c3ccccc32)cc1 (racemic) | 123 to 125 °C
CCNC(=S)n1nc(Oc2c(F)cc(C(F)(F)F)cc2Cl)cc1C | 114 to 115 °C
COc1cc(C(=O)O)ccc1Cc1cn(C)c2ccc(NC(=O)OC3CCCC3)cc12 | 157 to 158 °C
CC(C)(C)NC(=O)OC1OCN(c2cccc(C(F)(F)F)c2)C1=O (stereo not drawn) | 125 to 126 °C
Cc1ccc(I)c(I)c1C | 175 to 178 °C
CC(C)(C)OC(=O)C1CCCN2C(=O)CC(=O)N12 (stereo not drawn) | 121 to 122 °C
CCn1ncnc1COc1nn2c(-c3ccccc3F)nncc2c1-c1ccncc1 | 214 to 217 °C
CCCC(CCC)(CCC(N)=S)C(CCC)(CCC)C(N)=S | 87 to 88 °C
COC(=O)C1=C(C)NC(CO)=C(C(=O)OC)C1c1ccccc1[N+](=O)[O-] (stereo not drawn) | 164 to 165 °C
CCOC(=O)c1cn(-c2ccc(C(F)(F)F)cn2)nc1C1CCCCC1 | 99 to 100 °C

SMILES | melting point
CC(=O)C(=NNc1ccc(C)cc1)Sc1ccc(Cl)cc1 | 133 to 136 °C
Cc1ccc(-n2c(-c3sc(NC(=O)c4ccccc4)nc3-c3ccccc3)nc3ccccc3c2=O)cc1 | > 275 °C
COC(=O)Cc1ccc(CN2CCN(C(c3ccccc3)c3ccc(Cl)cc3)CC2)cc1 (stereo not drawn) | 113 to 115 °C
O=C(O)c1ccc(C=C(C(=O)C2CC2)C(=O)C2CC2)cc1 | 175 to 178 °C
O=C(Nc1c(Cl)cncc1Cl)c1ccc(SCF)c(OC2CCCC2)c1 | 111 to 113 °C
O=C1C(=O)N2CCOc3cccc1c32 | 188 °C
Cc1c(NC(=O)CC(C)(C)C)cc2c(c1C)OC(C)(C)C2c1ccc(Br)cc1 (stereo not drawn) | 171 to 172 °C
N#Cc1cnn(-c2ccc(Cl)c(Cl)c2Cl)c1Cl | 124 to 126 °C
O=C(NC1CCSc2cc(C(=O)O)ccc21)OCc1ccccc1 (stereo not drawn) | 202 to 205 °C
CC(=NOCCO)c1ccc(-c2ccc(C)cc2)cc1 | 142 to 144 °C
CC1(C)OC(C=Cc2cccnc2)=CC1=O | 68 to 70 °C
O=C(Nc1c(C(O)(C(F)(F)F)C(F)(F)F)ccc2ccccc12)c1cccnc1 | 214 to 215 °C
O=C(CCNC(=O)OCc1ccccc1)NC1OC(C(=O)O)CC1O (stereo not drawn) | 195 to 198 °C
O=C(NC(CO)c1ccccc1)c1ccccc1 (stereo not drawn) | 235 to 236 °C
O=C1COC(Nc2ccc(C(O)(C(F)(F)F)C(F)(F)F)cc2)=N1 | 272 to 274 °C
COC(=O)[C@H](CC(C)C)NC(=O)[C@@H](O)[C@@H](Cc1ccc(SC)cc1)NC(=O)OCc1ccccc1 | 130 to 132 °C
CCOC(=O)[C@@H]1[C@H](C)OC(=O)[C@@H]1NC(C)=O | 165 to 167 °C
Cc1cc2c(cc1C)C(=O)C(CC(=O)O)CC2 (stereo not drawn) | 193 to 194 °C
COCCOc1nc2cc(-c3ccc(Cl)cc3)nnc2c2ccccc12 | 148 to 150 °C
CCOC(=O)c1cccc2oc(C=O)cc12 | 88 to 89 °C
C[Si](C)(C)C#Cc1ccc2c(c1)NC(=O)CO2 | 142 °C
COc1ccc(-c2ccc3c(c2)C=C(C(=O)Nc2ccc(CN(C)C4CCOCC4)cc2)CCS3(=O)=O)cc1OC | 195 to 197 °C
CSc1nc(NCCCn2ccnc2)c(C#N)c(N2CCc3ccccc3CC2)n1 | 131 to 134 °C
CN1Cc2ccccc2C(Oc2ccc(C#N)cc2)C1 (stereo not drawn) | 131 to 132 °C
Cn1ncnc1COc1nc2c(cc1-c1ccsc1)nnn2-c1ccccc1F | 133 to 135 °C
